Experimental data reported in patent US8247211B2, “Glycopeptide antibiotics” (American Cyanamid Company, priority 2001, dated 2012).
In brackets after ≈: the same amount, converted by molar mass.

What was measured:
Assay in all cases: In vitro antibacterial evaluation: minimum inhibitory concentration (MIC), broth dilution method
Assay type in all cases: cell-based
Enterococcus sp. = tested on: Enterococcus sp.
In short: (§1)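 Using Muller-Hinton II […] and an inoculum of 5×10^5 CFU/mL, antibiotic dilutions from 64 down to 0.06 μg/mL were tested following NCCLS M7-A2. The MIC is the lowest concentration inhibiting growth, including in methicillin-, penicillin- or vancomycin-resistant clinical isolates.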

Escherichia coli = tested on: Escherichia coli
In short: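 Test strains, among them recent clinical isolates carrying methicillin, penicillin and/or vancomycin resistance, were inoculated at 5×10^5 CFU/mL. A broth dilution series spanning 64-0.06 μg/mL in Muller-Hinton II […] (NCCLS M7-A2) defined the MIC as the lowest growth-inhibiting concentration.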

Staphylococcus sp. = conditions: broth dilution, 18 hours at 35° C.
In short: as §1

Streptococcus sp. = tested on: Streptococcus sp.
In short: as §1

[1] = broth dilution, inoculum 5×10^5 CFU/mL, 18 hours at 35° C.

MIC Enterococcus avium (GC 4558) (Enterococcus sp.; [1]): 1 µg/mL (≈ 0.672 µM)
MIC Enterococcus faecalis (ATCC 29212) (Enterococcus sp.; [1]): 1 µg/mL (≈ 0.672 µM)
MIC Enterococcus faecalis (GC 2242) (Enterococcus sp.; [1]): 2 µg/mL (≈ 1.34 µM)
MIC Enterococcus faecalis (GC 2691) (Enterococcus sp.; [1]): 2 µg/mL (≈ 1.34 µM)
MIC Enterococcus faecalis (GC 3059) (Enterococcus sp.; [1]): 2 µg/mL (≈ 1.34 µM)
MIC Enterococcus faecalis (GC 4552) (Enterococcus sp.; [1]): 2 µg/mL (≈ 1.34 µM)
MIC Enterococcus faecalis (GC 4553) (Enterococcus sp.; [1]): 2 µg/mL (≈ 1.34 µM)
MIC Enterococcus faecalis (GC 4554) (Enterococcus sp.; [1]): 2 µg/mL (≈ 1.34 µM)
MIC Enterococcus faecalis (GC 6189) (Enterococcus sp.; [1]): 1 µg/mL (≈ 0.672 µM)
MIC Enterococcus faecium (GC 2243) (Enterococcus sp.; [1]): 2 µg/mL (≈ 1.34 µM)
MIC Enterococcus faecium (GC 4556) (Enterococcus sp.; [1]): 1 µg/mL (≈ 0.672 µM)
MIC Enterococcus faecium (GC 4557) (Enterococcus sp.; [1]): 2 µg/mL (≈ 1.34 µM)
MIC Enterococcus faecalis (ATCC 29212) (Enterococcus sp.; strain ATCC 29212): 1 µg/mL (≈ 0.672 µM)
MIC Enterococcus faecalis (GC 2242) (Enterococcus sp.; strain GC 2242): 2 µg/mL (≈ 1.34 µM)
MIC Enterococcus faecium (GC 2243) (Enterococcus sp.; strain GC 2243): 2 µg/mL (≈ 1.34 µM)
MIC Enterococcus faecalis (GC 2691) (Enterococcus sp.; strain GC 2691): 2 µg/mL (≈ 1.34 µM)
MIC Enterococcus faecalis (GC 3059) (Enterococcus sp.; strain GC 3059): 2 µg/mL (≈ 1.34 µM)
MIC Enterococcus faecalis (GC 4552) (Enterococcus sp.; strain GC 4552): 2 µg/mL (≈ 1.34 µM)
MIC Enterococcus faecalis (GC 4553) (Enterococcus sp.; strain GC 4553): 2 µg/mL (≈ 1.34 µM)
MIC Enterococcus faecalis (GC 4554) (Enterococcus sp.; strain GC 4554): 2 µg/mL (≈ 1.34 µM)
MIC Enterococcus faecium (GC 4556) (Enterococcus sp.; strain GC 4556): 1 µg/mL (≈ 0.672 µM)
MIC Enterococcus faecium (GC 4557) (Enterococcus sp.; strain GC 4557): 2 µg/mL (≈ 1.34 µM)
MIC Enterococcus avium (GC 4558) (Enterococcus sp.; strain GC 4558): 1 µg/mL (≈ 0.672 µM)
MIC Enterococcus faecalis (GC 6189) (Enterococcus sp.; strain GC 6189): 1 µg/mL (≈ 0.672 µM)
MIC Escherichia coli (ATCC 25922) (Escherichia coli; strain ATCC 25922): 32 µg/mL (≈ 21.5 µM)
MIC Escherichia coli (GC 4559) (Escherichia coli; strain GC 4559): 16 µg/mL (≈ 10.8 µM)
MIC Escherichi coli (GC 4560) (Escherichia coli; strain GC 4560): 0.5 µg/mL (≈ 0.336 µM)
MIC Coagulase Negative Staphylococcus (GC 4547) (Staphylococcus sp.; 5×10^5 CFU/mL): 2 µg/mL (≈ 1.34 µM)
MIC Coagulase Negative Staphylococcus (GC 4548) (Staphylococcus sp.; 5×10^5 CFU/mL): 0.5 µg/mL (≈ 0.336 µM)
MIC Coagulase Negative Staphylococcus (GC 4549) (Staphylococcus sp.; 5×10^5 CFU/mL): 0.25 µg/mL (≈ 0.168 µM)
MIC Coagulase Negative Staphylococcus (GC 4551) (Staphylococcus sp.; 5×10^5 CFU/mL): 0.5 µg/mL (≈ 0.336 µM)
MIC Coagulase Negative Staphylococcus (GC 6257) (Staphylococcus sp.; 5×10^5 CFU/mL): 0.5 µg/mL (≈ 0.336 µM)
MIC Staphylococcus aureus (ATCC 29213) (Staphylococcus sp.; 5×10^5 CFU/mL): 1 µg/mL (≈ 0.672 µM)
MIC Staphylococcus aureus (GC 1131) (Staphylococcus sp.; 5×10^5 CFU/mL): 2 µg/mL (≈ 1.34 µM)
MIC Staphylococcus aureus (GC 3051) (Staphylococcus sp.; 5×10^5 CFU/mL): 0.5 µg/mL (≈ 0.336 µM)
MIC Staphylococcus aureus (GC 3053) (Staphylococcus sp.; 5×10^5 CFU/mL): 1 µg/mL (≈ 0.672 µM)
MIC Staphylococcus aureus (GC 4541) (Staphylococcus sp.; 5×10^5 CFU/mL): 0.5 µg/mL (≈ 0.336 µM)
MIC Staphylococcus aureus (GC 4542) (Staphylococcus sp.; 5×10^5 CFU/mL): 0.5 µg/mL (≈ 0.336 µM)
MIC Staphylococcus aureus (GC 4544) (Staphylococcus sp.; 5×10^5 CFU/mL): 2 µg/mL (≈ 1.34 µM)
MIC Staphylococcus aureus (GC 4545) (Staphylococcus sp.; 5×10^5 CFU/mL): 2 µg/mL (≈ 1.34 µM)
MIC Staphylococcus aureus-SMITH (GC 4543) (Staphylococcus sp.; 5×10^5 CFU/mL): 0.5 µg/mL (≈ 0.336 µM)
MIC Staphylococcus aureus (ATCC 29213) (Staphylococcus sp.; strain ATCC 29213): 1 µg/mL (≈ 0.672 µM)
MIC Staphylococcus aureus (GC 1131) (Staphylococcus sp.; strain GC 1131): 2 µg/mL (≈ 1.34 µM)
MIC Staphylococcus aureus (GC 3051) (Staphylococcus sp.; strain GC 3051): 0.5 µg/mL (≈ 0.336 µM)
MIC Staphylococcus aureus (GC 3053) (Staphylococcus sp.; strain GC 3053): 1 µg/mL (≈ 0.672 µM)
MIC Staphylococcus aureus (GC 4541) (Staphylococcus sp.; strain GC 4541): 0.5 µg/mL (≈ 0.336 µM)
MIC Staphylococcus aureus (GC 4542) (Staphylococcus sp.; strain GC 4542): 0.5 µg/mL (≈ 0.336 µM)
MIC Staphylococcus aureus (GC 4544) (Staphylococcus sp.; strain GC 4544): 2 µg/mL (≈ 1.34 µM)
MIC Staphylococcus aureus (GC 4545) (Staphylococcus sp.; strain GC 4545): 2 µg/mL (≈ 1.34 µM)
MIC Streptococcus agalactiae (GC 4564) (Streptococcus sp.; [1]): <0.12 µg/mL
MIC Streptococcus pneumoniae (ATCC 6301) (Streptococcus sp.; [1]): <0.12 µg/mL
MIC Streptococcus pneumoniae (GC 1894) (Streptococcus sp.; [1]): <0.12 µg/mL
MIC Streptococcus pneumoniae (GC 4565) (Streptococcus sp.; [1]): <0.12 µg/mL
MIC Streptococcus pyogenes (GC 4563) (Streptococcus sp.; [1]): <0.12 µg/mL
MIC Streptococcus pneumoniae (ATCC 6301) (Streptococcus sp.; strain ATCC 6301): <0.12 µg/mL
MIC Streptococcus pneumoniae (GC 1894) (Streptococcus sp.; strain GC 1894): <0.12 µg/mL
MIC Streptococcus pyogenes (GC 4563) (Streptococcus sp.; strain GC 4563): <0.12 µg/mL
MIC Streptococcus agalactiae (GC 4564) (Streptococcus sp.; strain GC 4564): <0.12 µg/mL
MIC Streptococcus pneumoniae (GC 4565) (Streptococcus sp.; strain GC 4565): <0.12 µg/mL
Compound: CC(c1ccccc1)C1NC(=O)CNC(=O)C(CO)NC(=O)C(C(O)C2CNC(=N)N2C2OC(CO)C(O)C(O)C2O)NC(=O)C(C(O)C2CNC(=N)N2)NC(=O)C(Cc2ccc(OC3OC(CO)C(OC4OC5COC(c6ccc(C(=O)c7ccccc7)cc6)OC5C(O)C4O)C(O)C3O)cc2)NC1=O (stereo not drawn) [Example 173, Cyclo[glycyl-β-methylphenylalanyl-O-[4-O-[4,6-O-[4-benzoylbenzylidene)hexopyranosyl]-hexopyranosyl]tyrosyl-3-(2-iminoimidazolidin-4-yl)seryl-3-(3-hexopyranosyl-2-iminoimidazolidin-4-yl)serylseryl]]
MIC Staphylococcus haemolyticus (GC 4546) (Staphylococcus sp.; 5×10^5 CFU/mL): 1 µg/mL (≈ 0.672 µM)
